Measurements: publication PMC1890308, “Anti-calmodulins and Tricyclic Adjuvants in Pain Therapy Block the TRPV1 Channel” (PLoS ONE, 2007)

Key:
[1] = test system: heat evoked responses of dorsal horn neurons; test: heat-evoked responses of spinal dorsal horn neurons, microiontophoresis, extracellular single unit recording; type: in vivo, rat
Description: To validate in vivo efficacy of calmidazolium, experiments were carried out in a total of 22 nociceptive specific (NS) or wide dynamic range (WDR) spinal dorsal horn neurons in 16 lightly anesthetized rats. Effects of calmidazolium were studied on the heat evoked responses of dorsal horn neurons using noxious peripheral heat stimuli delivered in every 3 min in the cutaneous receptive field of the hind paw. After establishing stable baseline control responses, calmidazolium was iontophoresed (i.e. with 100 nA) from one of the barrels of the compound electrode. […] The calmidazolium evoked inhibition reached its maximum within 10 to 15 min after ejection and lasted throughout the entire recording periods (about 2 hrs) of the experiment. The monitored cells had excitatory receptive fields located on one of the hind paws. These cells usually had little spontaneous activity, located between 100–600 µm from the surface of the dorsal horn, as estimated by microdrive readings. […] Likewise to that determined previously in TRPV1-NIH3T3 cells, TRPV1-HaCaT keratinocyte lines and primary culture of nociceptive neurons, calmidazolium inhibited the ratemeter recorded signals of radiation heat pain in the rat (Fig. 7). […]

NMDA receptors = test: NMDA-evoked responses of spinal dorsal horn neurons, microiontophoresis; type: in vivo; settings: anesthetized rat, iontophoresis, mean±SD, n = 16
Description: In another set of experiments, effects of calmidazolium were investigated on the responses of dorsal horn neurons evoked by NMDA and kainic acid agonists of different glutamate receptors, well characterized transducers of pain signals, more centrally. Neuronal firing responses to iontophoresed NMDA or kainic acid were typically fast in onset and short in duration (Fig. 8). Ejection currents for these excitatory agents were delivered alternately in every 2 min and were selected to produce a maximal peak height of 50–70 spikes/s which corresponded to 300–400 action potentials per stimulation epoch. Iontophoretic application of calmidazolium produced significant reduction in responses to both NMDA and kainic acid. Maximal inhibition of NMDA- or kainic acid -evoked responses were reached 15–20 min after calmidazolium application and remained so during the rest of the 2 hour long experiment. […]
Extracellular single-neuron recordings were made in chloral hydrate-anesthetized ([…] initial dose, i.p., with supplemental doses as required) male Wistar rats weighing between 350–450 g. […] Rectal temperature as well as the temperature of the mineral oil were monitored with temperature probes and kept at 37°C by a warm water-heated blanket beneath the rat and an infrared heat lamp from above. […]

formalin-induced pain = test system: formalin-induced pain; parameters: method as in PMID 8883861; settings: rat, intrathecal; cited from earlier work
heat-induced tail-flick = test system: heat-induced tail-flick; parameters: method as in PMID 8883861; settings: cited from earlier work

Clc1ccc(C(c2ccc(Cl)cc2)n2cc[n+](CC(OCc3ccc(Cl)cc3Cl)c3ccc(Cl)cc3Cl)c2)cc1 (centres unmarked) [calmidazolium]
heat-evoked responses, % of pre-calmidazolium baseline control ([1]; anesthetized rat, iontophoresis 100 nA, noxious peripheral heat on hind paw, mean±SD, n = 6): 34±23%
duration of inhibition (entire recording period) ([1]; heat-evoked responses, rat): about 2 hrs
responses to NMDA, % of pre-calmidazolium baseline control (NMDA receptors): 13±12%
analgesia in both phases of formalin tests (formalin-induced pain): analgesic
effect on heat-induced tail-flick latency (heat-induced tail-flick): inhibit
